Source: US12403159B2, “Therapeutic metal complexes and ligands and methods of making and using the same” (Oregon State University, priority 2017, dated 2025)

How the values were obtained:
Cu,Zn SOD (human SOD) = test: Mass spectrometric assay of mature/immature SOD in CNS tissue of treated CCS×SOD^WT transgenic mice; format: in vivo; details: CSS×SOD^WT transgenic mice; for increase in mature SOD compared to untreated SOD^WT mice: FIG. 4
Method: Tissue Preparation for SOD and Cytochrome c Oxidase assays—Whole brains and spinal cords were rapidly dissected from euthanized transgenic mice, immediately frozen in liquid nitrogen, and then stored at −80° C. until use. To prepare brain tissue for mass spectrometry or cytochrome c oxidase assay, frozen brains were first placed on a plate on top of a slab of dry ice so that the brittle frozen tissue could warm to a temperature that allowed sectioning with a razor blade (approx. −10° C.). Motor cortex and surrounding cerebrum was then sectioned to a thickness of approximately 1 mm with a razor blade. A 500 μm biopsy needle was used to isolate three ˜250 μg punches from each mouse tissue, which provided technical replicates for mass spectrometry and cytochrome c oxidase examples. Tissue punches were weighed using a Cahn 25 Automatic Electrobalance (Cerritos, CA, USA) with a sensitivity of ±0.1 μg. Tissue punches were homogenized for 12 seconds using a VWR Handheld cordless motorized homogenizer to a concentration of 5 μg tissue/μl of homogenization buffer. Homogenization buffer (made fresh daily) was 10 mM ammonium acetate, pH 5.0-5.1. For SOD measurements, 300 nM bovine SOD (Sigma) was added as an internal standard. The ratio of human SOD to the bovine SOD internal standard was used to calculate the concentration of human SOD detected in mouse tissue. After homogenizing, samples were centrifuged for 2 minutes at 16000×g at 4° C. in an Eppendorf 5415 R centrifuge to pellet cell debris. Supernatant was transferred to a clean tube for mass spectrometry or cytochrome c oxidase assays. […]
An LTQ-FT Ultra hybrid linear ion trap-Fourier transform ion cyclotron resonance mass spectrometer (Thermo, San Jose, Calif.) with a Finnigan Ion Max API source configured for electrospray ionization (ESI) in positive ion mode was used for all mass spectrometry experiments. All SOD quantitation was performed using the linear ion trap with scan range of 800 to 2000 m/z, which allowed for detection of SOD multiple charge states +9 through +13. […]
Data were quantified in a custom Matlab program. […]

[1] = Reduction versus oxidation standard potentials (anhydrous DMSO); format: physicochemical; details: relative to CuPhMeTSM; FIG. 3
Description: The low reduction potential or, phrased differently, the high copper affinity of the ATSM ligand for cupric ion (in the 2+ ionization state) prevents copper release in most tissues, but allows selective release of copper in hypoxic tissues or in cells with damaged mitochondrial electron transport chains; however, even slight modifications of the CuATSM compound (e.g., removing one or both methyl groups from the carbon atoms of the diimine functional groups) results in rapid copper release that can result in toxicity in SOD ALS models. […] Continued treatment thus is necessary to provide sufficient copper for CCS to complete the maturation of Cu,Zn SOD. But, such continued treatment also has the potential to cause toxicity due to greater copper intake. Furthermore, given the negative reduction potential of CuATSM, it is very difficult to reduce, which is reflected in the slow efficacy in replenishing SOD and COX extending over weeks. As a consequence, the majority of CuATSM (e.g., >95%) is eliminated in urine with copper still bound. […] See, for example, FIG. 3, which illustrates reduction (left) versus oxidation standard potentials (right) for ligand components (as determined in anhydrous DMSO). […]

[2] = Elimination of CuATSM in urine; details: in vivo
Description: This crystallization and high melting point create issues with forming an orally-active CuATSM compound and prevents the use of solid dispersant methods to formulate the complex for oral delivery. As such, producing formulations having appropriate dosage limits of CuATSM remains a limitation in using this compound therapeutically, particularly in view of CuATSM's propensity to gradually crystalize out of matrices and form insoluble crystals. Large amounts of crystallized CuATSM passes into the bowels, and thereby contributes to gastrointestinal distress. […]
The low reduction potential or, phrased differently, the high copper affinity of the ATSM ligand for cupric ion (in the 2+ ionization state) prevents copper release in most tissues, but allows selective release of copper in hypoxic tissues or in cells with damaged mitochondrial electron transport chains; however, even slight modifications of the CuATSM compound (e.g., removing one or both methyl groups from the carbon atoms of the diimine functional groups) results in rapid copper release that can result in toxicity in SOD ALS models. […] See, for example, FIG. 3, which illustrates reduction (left) versus oxidation standard potentials (right) for ligand components (as determined in anhydrous DMSO). […]

G93A SOD×CCS mice = test: Survival of G93A SOD×CCS mice under treatment; format: in vivo
Method: In this example, G93A SOD×CCS mice were treated with 50 mg/kg/day of CuPhMeTSM transdermally starting at 4 days of age. The compound was able to keep six G93A SOD×CCS mice alive for 300 days (n=6). Results are illustrated in FIG. 10.

cytochrome c oxidase = test: Cytochrome c oxidase assay in brain and spinal cord of treated mice; format: in vivo; details: brain (FIG. 7A) and spinal cord (FIG. 7B); dermally with DMSO, 50 mg/kg/day once daily from four days of age, measured at day 21
Method: Tissue Preparation for SOD and Cytochrome c Oxidase assays—Whole brains and spinal cords were rapidly dissected from euthanized transgenic mice, immediately frozen in liquid nitrogen, and then stored at −80° C. until use. To prepare brain tissue for mass spectrometry or cytochrome c oxidase assay, frozen brains were first placed on a plate on top of a slab of dry ice so that the brittle frozen tissue could warm to a temperature that allowed sectioning with a razor blade (approx. −10° C.). Motor cortex and surrounding cerebrum was then sectioned to a thickness of approximately 1 mm with a razor blade. […] The ratio of human SOD to the bovine SOD internal standard was used to calculate the concentration of human SOD detected in mouse tissue. […]
Cytochrome c oxidase assay—The assay buffer included 30 uM reduced cytochrome c in 50 mM potassium phosphate buffer pH 7.0 containing 20 μM EDTA and 24 units/ml catalase. The final dilution of reduced cytochrome c stock should yield an absorbance at 550 nm of 0.7. […] To minimize interference from turbidity, the absorbance at 550 nm minus the absorbance at 580 nm was monitored. The change in absorbance was measured for one minute. Then, 2 μl of 100 mM sodium cyanide and the absorbance change was monitored for another 20 seconds. […]

juvenile mice = test: Effect of free ligands on growth of juvenile mice; format: in vivo
Description: Another limitation is that the ATSM ligand component of the CuATSM complex is pharmacologically active in binding metals and thus can react in potentially undesirable side reactions.

| Molecule | effect on growth of juvenile mice (juvenile mice) | increase in mature SOD compared to untreated SOD^WT mice (Cu,Zn SOD (human SOD)) [µM] | increase in COX activity (cytochrome c oxidase) | further results |
| --- | --- | --- | --- | --- |
| CN=C([S-])N/N=C(C)/C(C)=N/NC([S-])=NC.[Cu+2] [CuATSM] | – | 13 | – | oxidation wave: oxidized more easily than CuPhMeTSM by [1]: ~40 mV; fraction eliminated in urine with copper still bound [2]: > 95% |
| CNC1=NN=C(C)C(c2ccccc2)=NN=C(NC)[S][Cu][S]1 [CuPhMeTSM, copper phenylmethylTSM] | – | 60 | nearly twice the extent of CuATSM | decrease in amount of immature SOD (Cu,Zn SOD (human SOD); FIG. 6): decreased most; toxicity from the treatment (G93A SOD×CCS mice; G93A SOD×CCS mice, 50 mg/kg/day transdermally from 4 days of age): no toxicity apparent; time mice were kept alive (G93A SOD×CCS mice; G93A SOD×CCS mice, 50 mg/kg/day transdermally from 4 days of age, n=6): 300 days; mice still alive after receiving treatment (G93A SOD×CCS mice; low expressing G93A SOD mice crossed to CCS overexpressing mice, 50 mg/kg/day after four days of age, FIG. 10): nine out of 11 |
| copper 4-nitrophenylmethylTSM [nitro analog] | – | – | not as effective as the CuPhMeTSM embodiment | – |

Further lines, with some results ahead:

| effect on growth of juvenile mice (juvenile mice) | Molecule | increase in mature SOD compared to untreated SOD^WT mice (Cu,Zn SOD (human SOD)) [µM] | increase in COX activity (cytochrome c oxidase) | further results |
| --- | --- | --- | --- | --- |
| significant delay in growth | CN/C(S)=N/N=C/C=N/N=C(\S)NC [GTSM] | – | – | – |
| significant delay in growth | CN/C(S)=N/N=C/C(C)=N/N=C(\S)NC [PTSM] | – | – | – |
